Data reported in patent publication US20150011566A1, “N-PHENYLPIPERAZINE DERIVATIVES THAT ARE ANTAGONISTS OF A1A, A1D ADRENOCEPTORS AND 5-HT1A RECEPTORS FOR THE TREATMENT OF BENIGN PROSTATE HYPERPLASIA, PHARMACEUTICAL COMPOSITIONS CONTAINING THE SAME” (UNIVERSIDADE FEDERAL DO RIO DE JANEIRO-UFRJ, priority 2012, published 2015).
Where two headings read alike, the source gives them in different places.

Columns and labels:
α1A adrenoceptors = target: T1, α1A adrenoceptors (Oryctolagus cuniculus, UniProt O02824); assay: Binding of [3H]-prazosin to α1A adrenoceptors (rabbit liver membranes)
T1 construct: from tissue; host or cells: rabbit liver membranes
T1 sequence (O02824 1-466): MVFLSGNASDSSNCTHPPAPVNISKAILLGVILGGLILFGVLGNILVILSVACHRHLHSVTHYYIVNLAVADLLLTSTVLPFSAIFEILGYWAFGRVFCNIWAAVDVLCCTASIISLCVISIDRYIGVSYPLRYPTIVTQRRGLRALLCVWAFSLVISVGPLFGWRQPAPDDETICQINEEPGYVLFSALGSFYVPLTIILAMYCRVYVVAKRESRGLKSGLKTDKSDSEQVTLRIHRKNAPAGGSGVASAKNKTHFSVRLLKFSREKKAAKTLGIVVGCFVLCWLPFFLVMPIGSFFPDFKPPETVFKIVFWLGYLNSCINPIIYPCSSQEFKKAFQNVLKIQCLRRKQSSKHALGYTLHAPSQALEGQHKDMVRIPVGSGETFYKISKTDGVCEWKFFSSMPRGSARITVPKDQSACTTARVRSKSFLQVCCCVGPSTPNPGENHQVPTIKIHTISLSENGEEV
Experimental: Following the protocol described previously in the literature, membrane preparations from rabbit liver homogenates were obtained. Such membrane preparations are enriched in adrenoceptor subtype α1A. The tissue obtained as described above (˜30 g) was naturally thawed, immersed in thawing solution (0.25 M sucrose, 1 mM EGTA and 5 mM Tris (pH 7.4)) freezing. Then, the tissue was transferred to a petri dish on ice containing solution for homogenizing liver (2 mM EDTA, 100 mM NaCl and 50 mM Tris (pH 7.4)) freezing. The liver was then carefully cut by ignoring the most fibrous part.
Then, the material was transferred into a beaker where with the aid of Ultra-Turrax homogenizer (speed 24,000 RPM), the tissue was homogenized with the same buffer solution at a ratio of 6 parts of the solution to 1 part material. The material was homogenized three times for 20 seconds; in the intervals the solution was allowed to stand for 1 minute on ice. Subsequently, the homogenate was subjected to centrifugation 10,000×g for 10 minutes at 4° C., yielding a supernatant which was subjected to ultracentrifugation 80,000×g for 40 minutes at 4° C. yielding a pellet. This pellet was resuspended in buffer solution without NaCl (1 mM EDTA and 50 mM Tris (pH 7.4)) and further subjected to ultracentrifugation in the same previous conditions. The pellet obtained was resuspended in this step storage solution (0.25 M sucrose, 1 mM EGTA and 5 mM Tris (pH 7.4)) with the aid of a manual type Dounce homogenizer and stored in aliquots at 300 μL liquid nitrogen. In all protocols for membrane preparations the dosage of protein were performed according to the method of LOWRY et al. (J. Biol. Chem. 193 (1):265-275, 1951).
The standardization of the assay was done as described in the literature. […] Assays were performed in triplicate.
In both assays, membrane preparations were incubated at 0° C. for 45 minutes. After the incubation period, the reaction was stopped by adding 4 mL of ice-cold wash buffer (50 mM Tris-HCl, pH 7.4) followed by rapid vacuum filtration on glass fiber filter (GMF 3 Filtrak®). The filters were washed four times with 4 ml of the same solution under vacuum to remove all free radioligand. Then the filters were dried and placed in vials containing 5 ml scintillation fluid (4% PPO, 0.1% POPOP w/v in toluene). The radioactivity retained on the filters was then determined in a liquid scintillation counter (Packard Tri-Carb 1600 TR).
This procedure aims to obtain a saturation curve with less expenditure of radioactive substances and biological materials. Since competition assays allow us to construct inhibition curves of specific binding of radioligand. The higher the concentration of competitor agent employed in this case the LDT's study, the greater the competition for specific receptors, decreasing the formation radioligand-receptor complex. This can be seen by the gradual decrease of radioactivity retained on the filters is detected by the counter liquid scintillation.
These values were converted to Ki values (competitive dissociation constant at equilibrium or inhibition constant) using the Cheng-Prusoff equation (Eq. 2).

α1B adrenoceptors = target: T2, α1B adrenoceptors (Rattus norvegicus, UniProt P15823); assay: Binding of [3H]-prazosin to α1B adrenoceptors (rat liver membranes); details: for affinity range for α1B adrenoceptor: in words
T2 construct: from tissue; host or cells: rat liver membranes
T2 sequence (P15823 1-515): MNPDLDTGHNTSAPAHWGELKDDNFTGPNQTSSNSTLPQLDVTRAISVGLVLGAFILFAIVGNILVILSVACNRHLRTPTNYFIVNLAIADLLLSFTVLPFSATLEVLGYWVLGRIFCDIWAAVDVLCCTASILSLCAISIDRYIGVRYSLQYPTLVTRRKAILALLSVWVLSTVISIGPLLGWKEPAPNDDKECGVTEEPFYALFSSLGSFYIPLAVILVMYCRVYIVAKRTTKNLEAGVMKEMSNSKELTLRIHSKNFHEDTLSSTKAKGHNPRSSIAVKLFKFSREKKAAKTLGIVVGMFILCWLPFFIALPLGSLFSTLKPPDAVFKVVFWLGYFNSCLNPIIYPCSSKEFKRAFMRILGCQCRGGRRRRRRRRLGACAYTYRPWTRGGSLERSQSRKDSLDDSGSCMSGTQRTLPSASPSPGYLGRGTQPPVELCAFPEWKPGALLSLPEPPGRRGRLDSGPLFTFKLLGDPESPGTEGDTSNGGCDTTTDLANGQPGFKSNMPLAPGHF
Experimental: Following the protocol described previously in the literature membrane preparations from rat liver homogenates were obtained. Such membrane preparations are enriched in the adrenoceptor subtype α1B. The tissues obtained as described above (4 Rat livers corresponding to ˜30 g) were thawed and homogenized perforated similarly performed for rabbit liver. The homogenate obtained was filtered through four layers of gauze and then subjected to centrifugation 5,000×g for 20 minutes at 4° C., yielding a supernatant which was subsequently ultracentrifuged at 100,000×g for 60 minutes at 4° C., obtaining a pellet. This pellet was resuspended in buffer free of NaCl and subjected to a further […] under the same conditions.
Binding assays were standardized for α1B adrenoceptors in the same way adrenoceptor binding assays for α1A according to the literature, i.e. saturation and competition assays were performed on membrane preparations from rat liver, in this case using […] protein per tube contained […] suspension, in addition to various concentrations of LDT's (10^−9-10^−6 M).

[1] = Table 5, Cheng-Prusoff, read-out: α1A Ki
[2] = Table 5, Cheng-Prusoff, read-out: α1B Ki
[3] = Table 4, Cheng-Prusoff, read-out: Ki
[4] = Table 4, read-out: log CI50 ± EPM (converted)

SMILES	α1A log IC50 (M) (α1A adrenoceptors; Table 5)	Ki (α1A adrenoceptors; [1]) [M]	α1B log IC50 (M) (α1B adrenoceptors; Table 5)	Ki (α1B adrenoceptors; [2]) [nM]	IC50 (α1A adrenoceptors) [M]	Ki (α1A adrenoceptors) [M]	IC50 (α1B adrenoceptors) [nM]	Ki (α1B adrenoceptors) [nM]	further results
CCCN1CCN(c2ccccc2OC)CC1 [LDT 63]	−6.50 ± 0.08 M	2.7e-07	−6.22 ± 0.05	511	–	–	–	–	–
COc1cccc(CCN2CCN(c3ccccc3OC)CC2)c1 [LDT 3]	–	–	–	–	5.62e-09	4.63e-09	95.5	73.7	–
COc1ccc(CCN2CCN(c3ccccc3OC)CC2)cc1OC [LDT 5]	–	–	–	–	4.47e-09	3.67e-09	–	–	Ki (α1B adrenoceptors; [3]): 12.2 nM; IC50 (α1B adrenoceptors; [4]): 15.8 nM
COc1ccccc1N1CCN(CCc2ccccc2)CC1 [LDT 2]	–	–	–	–	1.91e-08	1.57e-08	63.1	48.7	–
CCN1CCN(c2ccccc2)CC1 [LDT 39]	−6.36 ± 0.21 M	3.74e-07	−6.29 ± 0.10	425	–	–	–	–	–
CCCCCN1CCN(c2ccccc2OC)CC1 [LDT 65]	–	–	–	–	7.94e-08	6.7e-08	331	277	–
CCN1CCN(c2ccccc2O)CC1 [LDT 70]	−6.45 ± 0.07 M	3.04e-07	−6.07 ± 0.10	715	–	–	–	–	–
CCOc1ccccc1N1CCN(CCc2ccc3c(c2)OCO3)CC1 [LDT 8]	–	–	–	–	4.57e-09	3.76e-09	11.7	9.07	affinity range for α1B adrenoceptor (α1B adrenoceptors): nanomolar range
COc1ccc(CCN2CCN(c3ccccc3OC)CC2)cc1 [LDT 4]	–	–	–	–	1.07e-08	8.81e-09	30.2	23.3	–
COc1ccccc1N1CCN(CCC2CCCCC2)CC1 [LDT 6]	–	–	–	–	–	–	–	–	Ki (α1A adrenoceptors; Table 3, Cheng-Prusoff, read-out: Ki (M) High Affinity site): 2.16e-09 M; IC50 (α1A adrenoceptors; read-out: log CI50 ± EPM (M) High Affinity site (converted)): 2.63e-09 M; Ki (α1B adrenoceptors; [3]): 154 nM; IC50 (α1B adrenoceptors; [4]): 200 nM; affinity range for α1B adrenoceptor (α1B adrenoceptors): range μM
CCCCCCN1CCN(c2ccccc2OC)CC1 [LDT 66]	−7.29 ± 0.11 a M	4.3e-08	−6.51 ± 0.18	221	–	–	–	–	–
CCN1CCN(c2ccccc2OC)CC1 [LDT 62]	−6.51 ± 0.2 M	2.61e-07	−6.27 ± 0.05	448	–	–	–	–	–
CCCCN1CCN(c2ccccc2OC)CC1 [LDT 64]	−6.84 ± 0.04 M	1.24e-07	−6.33 ± 0.16	393	–	–	–	–	–
CCOc1ccccc1N1CCN(CC)CC1 [LDT 69]	−7.41 ± 0.25 a M	3.3e-08	−6.53 ± 0.11	185	–	–	–	–	–
CCCCCCCN1CCN(c2ccccc2OC)CC1 [LDT 67]	−7.02 ± 0.12 a M	8.1e-08	−6.87 ± 0.10	113	–	–	–	–	–
CCCCCCCCN1CCN(c2ccccc2OC)CC1 [LDT 68]	−7.35 ± 0.2 a M	3.8e-08	−6.69 ± 0.10	173	–	–	–	–	–
